{"source": "patent US20070015771A1", "about": "“Lonidamine analogs” (Threshold pharmaceuticals, Inc., priority 2004, published 2007)", "key": {"PWR-1E cells": {"test_system": "PWR-1E cells", "assay": "BrdU-TUNEL apoptosis assay", "format": "cell-based", "details": "for % Non-apoptotic cells / % apoptotic cells: PWR-1E cells, 24 h", "protocol": "The effect of compound 1 (as described in Example 1 above) on apoptosis was determined as follows. PWR-1E cells (2×10^5 cells/ml/well) were seeded in a 24 well plate. The culture media were removed after 24 h, the cells were rinsed with PBS buffer (200 μL) and incubated (5 min, 37° C.) with a solution of Guava Viacount CDR in PBS (1:3 v/v). Media (750 μL) containing at least 5% FBS was added to each well, the cells released by repeated pipeting, centrifuged, and the supernatant aspirated. The cells were resuspended in PBS buffer (150 μL) and fixed by incubating (60 min, 4° C.) with 4% paraformaldehyde in PBS. The cells were centrifuged, and the supernatant removed to a final volume of 15 μL. The cell pellets were resuspended, followed by dropwise addition of 200 μl of ice-cold ethanol (70%), and the cells incubated at −20° C. at least for 2 hr. The cells were centrifuged, the supernatant removed, washed, and incubated with the DNA labeling mix (37° C., 60 min). The cells were washed, incubated (30 min) with anti-BrdU staining mix, washed again and analyzed on a Guava PCA-96 system (Guava Technologies, 25801 Industrial Boulevard, Hayward Calif. 94545-2991, USA)."}, "left and right testis": {"test_system": "left and right testis", "assay": "Mouse study, 10 days oral, testis weight", "format": "in vivo", "details": "C57B1/6J mice, oral daily for 10 days, 0.2-20 mg/kg", "protocol": "The control mice received an equal amount of the vehicle (carboxymethylcellulose). […] Relative weights of entire prostate and individual lobes were calculated by dividing the corresponding absolute weight by the total weight of the mouse. Relative weights of the entire prostate, the dorsal prostate, and the ventral prostate were calculated by dividing the absolute weight by the total weight of the mouse. Relative weights of the left and right testis were calculated by dividing the corresponding absolute weights by the total weights of the mouse."}}, "data": [{"smiles": "O=C(NO)c1nn(Cc2ccc(Cl)cc2Cl)c2ccccc12", "note": "[Compound 1]", "values": [{"measurement": "apoptosis in PWR1E cells", "setting": "PWR-1E cells; PWR1E cells", "value": "induces apoptosis"}, {"measurement": "% Non-apoptotic cells", "setting": "PWR-1E cells; 3.1 μM", "value": 90, "unit": "%"}, {"measurement": "% apoptotic cells", "setting": "PWR-1E cells; 3.1 μM", "value": 10, "unit": "%"}, {"measurement": "% Non-apoptotic cells", "setting": "PWR-1E cells; 6.2 μM", "value": 88, "unit": "%"}, {"measurement": "% apoptotic cells", "setting": "PWR-1E cells; 6.2 μM", "value": 12, "unit": "%"}, {"measurement": "% Non-apoptotic cells", "setting": "PWR-1E cells; 12.5 μM", "value": 78, "unit": "%"}, {"measurement": "% apoptotic cells", "setting": "PWR-1E cells; 12.5 μM", "value": 22, "unit": "%"}, {"measurement": "% Non-apoptotic cells", "setting": "PWR-1E cells; 25 μM", "value": 48, "unit": "%"}, {"measurement": "% apoptotic cells", "setting": "PWR-1E cells; 25 μM", "value": 52, "unit": "%"}, {"measurement": "absolute left testis weight (FIG. 13)", "setting": "left and right testis", "value": "dose dependent reduction"}, {"measurement": "absolute right testis weight (FIG. 12)", "setting": "left and right testis", "value": "dose dependent reduction"}, {"measurement": "relative left testis weight (FIG. 5)", "setting": "left and right testis", "value": "dose dependent reduction"}, {"measurement": "relative right testis weight (FIG. 4)", "setting": "left and right testis", "value": "dose dependent reduction"}]}]}
